Results taken from patent US6015900A, “N-aminoalkylfluorenecarboxamides” (Neurogen Corporation, priority 1998, dated 2000).
pKi: −log10 of the molar value. Structures can show the parent of a compound that is named as a salt. Where two headings read alike, the source gives them in different places.

How the values were obtained:
D2 receptors = D2 receptors (Chlorocebus aethiops, UniProt P52702); assay: biochemical; format: binding, African Green monkey
D3 receptors = D3 receptors (Chlorocebus aethiops, UniProt P52703); assay: biochemical; format: binding, African Green monkey
D3 receptors, sequence (P52703 whole entry): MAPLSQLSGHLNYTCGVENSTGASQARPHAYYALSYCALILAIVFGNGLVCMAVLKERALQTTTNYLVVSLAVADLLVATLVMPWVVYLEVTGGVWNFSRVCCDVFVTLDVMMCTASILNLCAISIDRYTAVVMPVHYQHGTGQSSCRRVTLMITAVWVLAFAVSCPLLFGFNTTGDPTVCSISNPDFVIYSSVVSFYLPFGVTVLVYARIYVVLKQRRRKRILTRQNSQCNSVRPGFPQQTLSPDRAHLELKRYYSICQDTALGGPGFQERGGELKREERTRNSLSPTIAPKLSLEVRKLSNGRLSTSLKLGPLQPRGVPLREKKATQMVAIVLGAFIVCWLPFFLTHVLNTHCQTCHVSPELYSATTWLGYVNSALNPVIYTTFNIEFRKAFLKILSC

[1] = COS cells containing recombinant D2 receptors, 0.5 nM ^3 H-YM 09151-2, nonspecific binding with 1 mM spiperone, read-out: D2 Ki
[2] = COS cells containing recombinant D3 receptors, 0.5 nM ^3 H-YM 09151-2, nonspecific binding with 1 mM spiperone, read-out: D3 Ki

D2 receptors, sequence (P52702 whole entry): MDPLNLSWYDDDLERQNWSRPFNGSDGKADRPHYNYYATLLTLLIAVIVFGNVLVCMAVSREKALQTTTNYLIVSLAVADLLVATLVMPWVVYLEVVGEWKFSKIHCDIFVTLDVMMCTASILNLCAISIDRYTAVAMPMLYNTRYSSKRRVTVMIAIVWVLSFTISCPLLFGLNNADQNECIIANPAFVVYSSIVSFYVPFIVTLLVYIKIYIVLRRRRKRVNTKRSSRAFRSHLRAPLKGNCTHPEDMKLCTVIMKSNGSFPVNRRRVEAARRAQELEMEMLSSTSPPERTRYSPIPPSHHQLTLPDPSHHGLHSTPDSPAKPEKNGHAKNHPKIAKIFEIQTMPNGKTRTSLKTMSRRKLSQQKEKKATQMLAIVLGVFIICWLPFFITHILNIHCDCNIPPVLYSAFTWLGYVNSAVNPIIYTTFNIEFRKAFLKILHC

pKi (D2 receptors; [1])	pKi (D3 receptors; [2])	SMILES	pKi (D2 receptors)	pKi (D3 receptors)
		O=C(NCCCCN1CCN(c2cccc(Cl)c2Cl)CC1)c1ccc2c(c1)Cc1ccccc1-2 [Compound 1, N-{4-[4-(2,3-dichlorophenyl)-1-piperazinyl]butyl}-9H-fluorene-2-carboxamidehydrochloride]	6.14	8.52
6.82	9.00	O=C(NCCCCN1CCN(c2cccc3ccccc23)CC1)c1ccc2c(c1)Cc1ccccc1-2 [Compound 2, N-{4-[4-(1-Naphthyl)-1-piperazinyl]butyl}-9H-fluorene-2-carboxamide hydrochloride]		
7.01	9.15	O=C(NCCCCN1CCN(c2ccccc2Cl)CC1)c1ccc2c(c1)C(=O)c1ccccc1-2 [Compound 3, N-{4-[4-(2-Chlorophenyl)-1-piperazinyl]butyl}-9-oxo-fluorene-2-arboxamide hydrochloride]		
